Data set [1] deals with T1, ATP-dependent translocase ABCB1 (Homo sapiens, UniProt P08183). The data set is described as follows: Inhibition of ABCB1 (unknown origin) expressed in Flp-In-293 cells assessed as increase in calcein-AM uptake at 5 uM preincubated for 30 mins followed by calcein-AM addition measured after 30 mins by fluorescence spectrometric method relative to control. The conditions noted are these: 0.5 h. Format: cell-based.

In data set [2] the target is T1, ATP-dependent translocase ABCB1. The experiment in a line: Inhibition of ABCB1 (unknown origin) expressed in Flp-In-293 cells assessed as increase in calcein-AM uptake at 2.5 uM preincubated for 30 mins followed by calcein-AM addition measured after 30 mins by fluorescence spectrometric method relative to control. Format: cell-based. The conditions noted are these: 0.5 h.

Data set [3] shares this target. The experiment in a line: Inhibition of ABCB1 (unknown origin) expressed in Flp-In-293 cells assessed as increase in calcein-AM uptake at 10 uM preincubated for 30 mins followed by calcein-AM addition measured after 30 mins by fluorescence spectrometric method relative to control. The class given is cell-based. The conditions noted are these: 0.5 h.
In data set [4] the test system is HEK293. The data set is described as follows: Potentiation of vincristine-induced cytotoxicity against human Flp-In-293 cells at 2.5 uM by SRB assay relative to control. The class given is functional. In general terms: Sulforhodamine B stains cellular protein and so reports cell mass.
Data set [5] deals with HEK293. The experiment in a line: Potentiation of vincristine-induced cytotoxicity against human Flp-In-293 cells at 1 uM by SRB assay relative to control. Format: functional.
The species entered for data set [6] is Homo sapiens. The experiment in a line: Inhibition of P-gp in human KBVIN cells assessed as potentiation of doxorubicin-induced cytotoxicity at 1 uM by SRB assay relative to control. The class given is cell-based.
The species named for data set [7] is Homo sapiens. The experiment in a line: Inhibition of P-gp in human KBVIN cells assessed as potentiation of vincristine-induced cytotoxicity at 2.5 uM by SRB assay relative to control. Format: cell-based.
Data set [8] concerns HEK293. The data set is described as follows: Potentiation of paclitaxel-induced cytotoxicity against human Flp-In-293 cells at 2.5 uM by SRB assay relative to control. Format: functional.
Data set [9] has as its system HEK293. The experiment in a line: Potentiation of doxorubicin-induced cytotoxicity against human Flp-In-293 cells at 1 uM by SRB assay relative to control. Format: functional.
Data set [10] is filed under the species Homo sapiens. The data set is described as follows: Inhibition of P-gp in human HeLaS3 cells assessed as potentiation of vincristine-induced cytotoxicity at 2.5 uM by SRB assay relative to control. The class given is cell-based.
The test system of a further data set is HeLa S3. The experiment in a line: Cytotoxicity against human HeLaS3 assessed as reduction in cell viability by SRB assay. Format: cell-based.
The species named for data set [11] is Homo sapiens. The data set is described as follows: Inhibition of P-gp in human HeLaS3 cells assessed as potentiation of doxorubicin-induced cytotoxicity at 1 uM by SRB assay relative to control. The class given is cell-based.
Data set [12] is filed under the species Homo sapiens. The data set is described as follows: Inhibition of P-gp in human HeLaS3 cells assessed as potentiation of paclitaxel-induced cytotoxicity at 1 uM by SRB assay relative to control. Format: cell-based.
For data set [13], the species on record is Homo sapiens. The data set is described as follows: Inhibition of P-gp in human KBVIN cells assessed as potentiation of paclitaxel-induced cytotoxicity at 1 uM by SRB assay relative to control. Format: cell-based.
Data set [14] is filed under the species Homo sapiens. The data set is described as follows: Inhibition of P-gp in human HeLaS3 cells assessed as potentiation of doxorubicin-induced cytotoxicity at 2.5 uM by SRB assay relative to control. The class given is cell-based.
Data set [15] relates to HEK293. The experiment in a line: Potentiation of doxorubicin-induced cytotoxicity against human Flp-In-293 cells at 2.5 uM by SRB assay relative to control. The class given is functional.
The species named for data set [16] is Homo sapiens. The experiment in a line: Inhibition of P-gp in human KBVIN cells assessed as potentiation of doxorubicin-induced cytotoxicity at 2.5 uM by SRB assay relative to control. Format: cell-based.
The species entered for data set [17] is Homo sapiens. The data set is described as follows: Inhibition of P-gp in human KBVIN cells assessed as potentiation of vincristine-induced cytotoxicity at 1 uM by SRB assay relative to control. The class given is cell-based.
Data set [18] is filed under the species Homo sapiens. The experiment in a line: Inhibition of P-gp in human KBVIN cells assessed as potentiation of paclitaxel-induced cytotoxicity at 2.5 uM by SRB assay relative to control. The class given is cell-based.
For data set [19], the species on record is Homo sapiens. The data set is described as follows: Inhibition of P-gp in human HeLaS3 cells assessed as potentiation of vincristine-induced cytotoxicity at 1 uM by SRB assay relative to control. Format: cell-based.
Data set [20] relates to HEK293. The experiment in a line: Potentiation of paclitaxel-induced cytotoxicity against human Flp-In-293 cells at 1 uM by SRB assay relative to control. Format: functional.

SMILES strings stand for the structures. Bounds are passed on as bounds.

Here are results for 37 molecules from ChEMBL document CHEMBL4041509, “Structure-activity relationship study of novel 2-aminobenzofuran derivatives as P-glycoprotein inhibitors” (Eur J Med Chem, 2017).

T1 sequence (P08183 whole entry): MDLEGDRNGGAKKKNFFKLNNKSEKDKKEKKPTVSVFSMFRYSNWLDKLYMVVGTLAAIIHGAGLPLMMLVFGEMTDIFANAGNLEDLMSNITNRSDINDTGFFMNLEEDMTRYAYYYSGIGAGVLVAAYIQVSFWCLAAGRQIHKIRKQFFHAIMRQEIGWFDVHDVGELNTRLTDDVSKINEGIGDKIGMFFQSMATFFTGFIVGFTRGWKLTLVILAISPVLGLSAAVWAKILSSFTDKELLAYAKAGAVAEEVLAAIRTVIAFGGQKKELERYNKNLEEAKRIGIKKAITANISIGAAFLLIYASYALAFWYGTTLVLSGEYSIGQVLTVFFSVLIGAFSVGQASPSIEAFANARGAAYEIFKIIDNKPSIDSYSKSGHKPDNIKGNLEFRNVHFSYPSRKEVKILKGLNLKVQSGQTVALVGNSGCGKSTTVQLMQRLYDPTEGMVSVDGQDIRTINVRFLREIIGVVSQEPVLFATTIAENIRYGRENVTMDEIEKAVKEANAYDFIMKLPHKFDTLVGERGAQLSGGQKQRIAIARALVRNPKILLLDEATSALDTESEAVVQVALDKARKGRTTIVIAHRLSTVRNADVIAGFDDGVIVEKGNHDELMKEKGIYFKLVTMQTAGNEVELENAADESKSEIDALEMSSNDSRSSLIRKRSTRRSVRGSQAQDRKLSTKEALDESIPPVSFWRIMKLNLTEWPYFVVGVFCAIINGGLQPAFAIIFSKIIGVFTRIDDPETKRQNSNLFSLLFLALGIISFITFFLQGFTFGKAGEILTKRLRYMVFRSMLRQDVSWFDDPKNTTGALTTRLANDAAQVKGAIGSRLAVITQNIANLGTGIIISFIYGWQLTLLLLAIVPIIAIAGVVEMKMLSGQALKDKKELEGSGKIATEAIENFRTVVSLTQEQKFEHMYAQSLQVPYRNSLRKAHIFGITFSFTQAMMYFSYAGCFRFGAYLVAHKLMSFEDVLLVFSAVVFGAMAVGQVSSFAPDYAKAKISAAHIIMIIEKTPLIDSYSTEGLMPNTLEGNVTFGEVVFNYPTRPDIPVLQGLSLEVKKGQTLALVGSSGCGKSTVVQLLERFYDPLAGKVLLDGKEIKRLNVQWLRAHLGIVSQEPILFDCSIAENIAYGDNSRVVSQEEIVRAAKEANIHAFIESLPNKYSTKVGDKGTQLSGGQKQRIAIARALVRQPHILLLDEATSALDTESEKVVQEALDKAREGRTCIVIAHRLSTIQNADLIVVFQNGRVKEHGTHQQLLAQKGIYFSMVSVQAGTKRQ

Take `COc1ccc(-c2cc(OCCCN3CCCCC3)c3c(-c4cccs4)c(N)oc3c2)cc1OC`: the “fold change (FC)” value in [1] was 4.55.

Turning to `COc1ccc(-c2cc(OC(C)=O)c3c(-c4cccnc4)c(N)oc3c2)cc1`, the “fold change (FC)” value in [2] is recorded as 0.89; in [1] it was 1.13.

`COc1ccc(-c2cc(OCc3ncc(C)c(OC)c3C)c3c(-c4cccs4)c(N)oc3c2)cc1`: the “fold change (FC)” value in data set [1] is recorded as 7.97; in data set [3], 8.38.

On to `COc1ccc(-c2cc(OC(C)=O)c3c(-c4ccccc4Cl)c(N)oc3c2)cc1`, for which the “fold change (FC)” value is 1.3 in data set [2] and 1.59 in data set [1].

For the molecule `COc1ccc(-c2cc(OCc3cccc(Cl)c3)c3c(-c4cccs4)c(N)oc3c2)cc1`, the “fold change (FC)” value in [1] is recorded as 0.6; in data set [3], 0.56.

Consider `CC(=O)Oc1cc(-c2ccccc2)cc2oc(N)c(-c3cccs3)c12`, for which the entries for the “fold change (FC)” value in data set [2] and in [1] were 0.95 and 0.98, respectively.

For the molecule `COc1ccc(-c2cc(OC(C)=O)c3c(-c4cccc(Cl)c4)c(N)oc3c2)cc1`, the entries for the “fold change (FC)” value in [2] and in [1] were 1.85 and 2.45, respectively.

`COc1ccc(-c2cc(OCCN3CCCCC3)c3c(-c4cccs4)c(N)oc3c2)cc1OC`: the “fold change (FC)” value in data set [1] is 6.06.

On to `COc1ccc(-c2cc(OC(C)=O)c3c(-c4ccc(Cl)cc4)c(N)oc3c2)cc1`, for which the entries for the “fold change (FC)” value in [2] and in [1] were 1.52 and 2.2, respectively.

For `COc1ccc(-c2cc(OCc3cccc(OC)c3)c3c(-c4cccs4)c(N)oc3c2)cc1`, the “fold change (FC)” value was 0.78 in [1] and 0.71 in data set [3].

On to `COc1ccc(-c2cc(OCc3ccncc3)c3c(-c4cccs4)c(N)oc3c2)cc1`, for which the “fold change (FC)” value was 4.33 in data set [1] and 5.88 in data set [3].

Turning to `COc1ccc(-c2cc(OC(C)=O)c3c(-c4ccc(OC)cc4)c(N)oc3c2)cc1`, the entries for the “fold change (FC)” value in data set [2] and in data set [1] were 1.17 and 1.75, respectively.

For the molecule `COc1ccc(-c2cc(OCCN3CCOCC3)c3c(-c4cccs4)c(N)oc3c2)cc1`, the “fold change (FC)” value in data set [1] is listed as 6.64; in [3], 8.86.

As for `CCN(CC)CCOc1cc(-c2ccc(OC)cc2)cc2oc(N)c(-c3cccs3)c12`, the “fold change (FC)” value in data set [1] was 8.85; in data set [3], 10.14.

Consider `COc1ccc(-c2cc(OC(C)=O)c3c(-c4cccs4)c(N)oc3c2)cc1`, for which the “fold change (FC)” value was 1.9 in data set [2] and 2.2 in data set [1].

`COc1ccc(-c2cc(OC(C)=O)c3c(-c4ccccc4)c(N)oc3c2)cc1`: the “fold change (FC)” value in data set [2] was 1.7; in data set [1], 2.27.

With `COc1ccc(-c2cc(OCc3ccccn3)c3c(-c4cccs4)c(N)oc3c2)cc1`, the “fold change (FC)” value in data set [1] is 3.22; in [3], 4.33.

Regarding `COc1ccc(-c2cc(OC(C)=O)c3c(-c4ccc5c(c4)OCO5)c(N)oc3c2)cc1`, the “fold change (FC)” value was 1.3 in data set [2] and 1.48 in data set [1].

In the case of `CC(=O)Oc1cccc2oc(N)c(-c3cccs3)c12`, the “fold change (FC)” value is on record as 1.05 in data set [2] and 1.12 in data set [1].

Consider `COc1ccc(-c2cc(OC(C)=O)c3c(-c4ccc(C)cc4)c(N)oc3c2)cc1`, for which the “fold change (FC)” value in [2] is 1.45; in data set [1] it was 1.86.

Consider `COc1ccc(-c2cc(OCCN3CCCCC3)c3c(-c4cccs4)c(N)oc3c2)cc1`, for which the “fold change (FC)” value is recorded as 7.53 in [1] and 5.66 in [3].

`COc1ccc(-c2cc(OCc3ccncc3)c3c(-c4cccs4)c(N)oc3c2)cc1OC`: the “fold change (FC)” value is recorded as 5.93 in [1] and 7.79 in data set [3].

For `COc1ccc(-c2cc(OC(C)=O)c3c(-c4ccc(Cl)c(Cl)c4)c(N)oc3c2)cc1`, the entries for the “fold change (FC)” value in data set [2] and in data set [1] were 1.82 and 1.83, respectively.

Regarding `COc1ccc(-c2cc(O)c3c(-c4cccs4)c(N)oc3c2)cc1OC`, the “fold change (FC)” value in data set [1] is recorded as 1.15.

For the molecule `COc1ccc(-c2cc(OCc3cccnc3)c3c(-c4cccs4)c(N)oc3c2)cc1`, the “fold change (FC)” value in data set [1] is 3.68; in data set [3] it was 4.72.

What is called IC50 is the concentration that inhibits the measured activity by half. On to `COc1ccc(CCN(C)CCCC(C#N)(c2ccc(OC)c(OC)c2)C(C)C)cc1OC` (configuration not stated), for which the “fold change (FC)” value turned out to be 9.54 with HEK293 [4]; 1.82 with HEK293 [5]; 1.61 in the data set listed under Homo sapiens [6]; 46.1 in the data set listed under Homo sapiens [7]; 1.37 in the data set with HEK293 [8]; 1.04 in the data set on HEK293 [9]. The fold change (FC) in the data set filed under Homo sapiens [10] worked out at 1.59; in the data set listed under Homo sapiens [11], 1.33; in the data set filed under Homo sapiens [12], 3.91; in the data set listed under Homo sapiens [13], 5.13; in the data set filed under Homo sapiens [14], 2.82; in the data set on HEK293 [15], 0.8. Also, the fold change (FC) in the data set listed under Homo sapiens [16] turned out to be 6.69; in the data set listed under Homo sapiens [17], 24; in the data set filed under Homo sapiens [18], 22.9; in the data set filed under Homo sapiens [19] it was 1.27; in the data set on HEK293 [20], 1.49. The IC50 in the data set with HeLa S3 is over 50 µM.

In the case of `CC(=O)Oc1cc(-c2ccc3c(c2)OCO3)cc2oc(N)c(-c3cccs3)c12`, the entries for the “fold change (FC)” value in [2] and in [1] were 0.96 and 0.86, respectively.

Consider `COc1ccc(-c2cc(OCc3ccccc3)c3c(-c4cccs4)c(N)oc3c2)cc1`, for which the “fold change (FC)” value in data set [1] is recorded as 0.81; in data set [3], 0.85.

As for `COc1ccc(-c2cc(OC(C)=O)c3c(-c4c(Cl)cccc4Cl)c(N)oc3c2)cc1`, the “fold change (FC)” value in data set [2] was 1.34; in [1], 1.81.

In the case of `COc1ccc(-c2cc(OCCN3CCOCC3)c3c(-c4cccs4)c(N)oc3c2)cc1OC`, the entries for the “fold change (FC)” value in [1] and in data set [3] were 8.42 and 8.85, respectively.

As to `COc1ccc(-c2cc(O)c3c(-c4cccs4)c(N)oc3c2)cc1`, the “fold change (FC)” value in data set [2] is 1.46; in data set [1] it was 1.62.

In the case of `COc1ccc(-c2cc(OC(C)=O)c3c(-c4cccs4)c(N)oc3c2)cc1OC`, the results for the “fold change (FC)” value in data set [2] and in [1] were 3.75 and 4.35, respectively.

As for `COc1ccc(-c2cc(OC(C)=O)c3c(-c4ccc(F)cc4)c(N)oc3c2)cc1`, the “fold change (FC)” value in [2] is 0.94; in [1], 1.26.

For `COc1ccc(-c2cc(OC(C)=O)c3c(-c4c(F)cccc4Cl)c(N)oc3c2)cc1`, the “fold change (FC)” value in data set [2] was 1.35; in data set [1], 1.61.

`COc1ccc(-c2cc(OC(C)=O)c3c(-c4ccccc4F)c(N)oc3c2)cc1`: the “fold change (FC)” value in data set [2] is 1.31; in data set [1], 1.82.

As to `COc1ccc(-c2cc(OC(C)=O)c3c(-c4ccccc4OC)c(N)oc3c2)cc1`, the results for the “fold change (FC)” value in [2] and in [1] were 1.32 and 1.49, respectively.

As to `COc1ccc(-c2cc(OCc3ccc([N+](=O)[O-])cc3)c3c(-c4cccs4)c(N)oc3c2)cc1`, the results for the “fold change (FC)” value in data set [1] and in [3] were 0.78 and 0.85, respectively.
